# Laboratory results reported in patent US20170151221A1, “PHARMACEUTICAL COMPOSITIONS COMPRISING CEFEPIME OR SULBACTAM” (priority 2014, published 2017).
# Like-named read-outs stand apart in the source and are kept apart here.
# Assays:
# [1] = tested on: Acinetobacter baumannii NCTC 13302 producing carbapenemase hydrolyzing OXA 25 enzyme; experiment: Time kill study; type: cell-based; conditions: for Bacterial count (Log10 CFU/ml): agent alone at 8 mcg/ml
# Experimental: (§1) The synergistic killing effect of the combinations according to invention was studied by performing typical time kill studies. Typically, freshly grown cultures were diluted to the required cell density (initial starting inoculum) in Cation adjusted Muller Hinton broth medium (BD, USA). The antibacterial agents at the required concentrations were added into the culture-containing medium either alone or in combination. The samples were incubated under shaking condition (120 rpm) at 37° C. Enumeration of viable bacterial count was undertaken, every 2 hour, by diluting in normal saline and plating on to the Tryptic Soya Agar plates (BD, USA). The plates were incubated for 24 hours to arrive at the viable bacterial count. […] The decrease of 1 Log CFU/ml, after administration of combination of present invention, in comparison to initial bacterial count corresponds to 90% killing of bacteria. Similarly, 2 Log CFU/ml reductions corresponds to 99% killing of bacteria and 3 Log CFU/ml reductions is equal to 99.9% killing of bacteria.
# (§2) The assay without any antibacterial agent was taken as control.
# [2] = tested on: Acinetobacter baumannii NCTC 13301 producing Carbapenemase hydrolyzing OXA 23 enzyme; experiment: Time kill study; type: cell-based; conditions: for Bacterial count (Log10 CFU/ml): agent alone at 8 mcg/ml
# Experimental: as §1, §2
# [3] = tested on: carbapenam hydrolyzing (CHDL) and oxacillinases (OXA) producing Acinetobactor strains; experiment: Antibacterial activity, summary statements over Tables 1-3; type: cell-based, Acinetobacter baumannii
# Experimental: (§3) The antibacterial activity of combinations according to the invention was investigated against various bacterial strains. In a typical study, minimum inhibitory concentrations (MIC) were determined using Muller Hinton Agar (MHA) (BD, USA) according to Clinical and Laboratory Standards Institute (CLSI) recommendations, (Clinical and Laboratory Standards Institute (CLSI), Performance Standards for Antimicrobial Susceptibility Testing, 20th Informational Supplement, M 100-S20, Volume 30, No. 1, 2010). In short, the inocula were adjusted to deliver about 10^4 colony forming units (CFU) per spot with a multipoint inoculator (Applied Quality Services, UK). The plates were pored with doubling concentration range of the test combinations according to invention containing MHA. The plates were inoculated and were incubated at 35° C. for 18 hours.
# as §1
# [4] = tested on: A. baumannii NCTC 13302 [OXA 51, OXA 25]; experiment: MIC by agar dilution (Muller Hinton Agar, CLSI); type: cell-based; conditions: Acinetobacter baumannii
# Experimental: as §3
# [5] = tested on: A. baumannii J 145 [OXA 51, OXA 24]; experiment: MIC by agar dilution (Muller Hinton Agar, CLSI); type: cell-based; conditions: Acinetobacter baumannii
# Experimental: as §3
# [6] = tested on: A. baumannii S 8 [OXA 51, OXA 23]; experiment: MIC by agar dilution (Muller Hinton Agar, CLSI); type: cell-based; conditions: Acinetobacter baumannii
# Experimental: as §3
# [7] = tested on: A. baumannii 1449880 [OXA 51, OXA 23]; experiment: MIC by agar dilution (Muller Hinton Agar, CLSI); type: cell-based; conditions: Acinetobacter baumannii
# Experimental: as §3
# [8] = tested on: A. baumannii NCTC 13304 [OXA 51, OXA 27]; experiment: MIC by agar dilution (Muller Hinton Agar, CLSI); type: cell-based; conditions: Acinetobacter baumannii
# Experimental: as §3
# [9] = tested on: A. baumannii 1363934 [OXA 51, OXA 23]; experiment: MIC by agar dilution (Muller Hinton Agar, CLSI); type: cell-based; conditions: Acinetobacter baumannii
# Experimental: as §3
# [10] = cefepime, sulbactam, imipenem at 8 mcg/ml, compound of Formula (I) at 4 mcg/ml, alone or in combination, 8 hours
# [11] = read-out: MIC (mcg/ml) in presence of Compound of Formula (I) at 4 mcg/ml
# [12] = read-out: MIC (mcg/ml) in presence of Compound of Formula (I) at 8 mcg/ml
smiles,measurement,setting,value
CC1(C)[C@H](C(=O)O)N2C(=O)C[C@H]2S1(=O)=O [Sulbactam],Bacterial count (Log10 CFU/ml),[1]; 0 hours,6.30 Log10 CFU/ml
same,Bacterial count (Log10 CFU/ml),[1]; 2 hours,7.39 Log10 CFU/ml
same,Bacterial count (Log10 CFU/ml),[1]; 4 hours,7.69 Log10 CFU/ml
same,Bacterial count (Log10 CFU/ml),[1]; 6 hours,7.34 Log10 CFU/ml
same,Bacterial count (Log10 CFU/ml),[1]; 8 hours,7.34 Log10 CFU/ml
same,Effect on bacterial count throughout the duration of the study (in words),[1]; [10],not effective to decrease the bacterial count
same,Bacterial count (Log10 CFU/ml),[2]; 0 hours,6.32 Log10 CFU/ml
same,Bacterial count (Log10 CFU/ml),[2]; 2 hours,7.27 Log10 CFU/ml
same,Bacterial count (Log10 CFU/ml),[2]; 4 hours,7.65 Log10 CFU/ml
same,Bacterial count (Log10 CFU/ml),[2]; 6 hours,7.74 Log10 CFU/ml
same,Bacterial count (Log10 CFU/ml),[2]; 8 hours,7.81 Log10 CFU/ml
same,Effect on bacterial count throughout the duration of the study (in words),[2]; [10],not effective to decrease the bacterial count
same,Change of MIC values in the presence of compound of Formula (I) (in words),"[3]; Table 1 strains, compound of Formula (I) at 4 or 8 mcg/ml",significantly decreased
same,Antibacterial effect against highly resistant strains of A. baumannii (in words),[3]; summary of Tables 1-3,ineffective
same,MIC,"[4]; NCTC13302, read-out: MIC (mcg/ml)",16 µg/mL
same,MIC,"[4]; NCTC13302, read-out: MIC (mcg/ml) in presence of Compound of Formula (I) at 4 mcg/ml",2 µg/mL
same,MIC,"[4]; NCTC13302, read-out: MIC (mcg/ml) in presence of Compound of Formula (I) at 8 mcg/ml",1 µg/mL
same,MIC,[5]; read-out: MIC (mcg/ml),16 µg/mL
same,MIC,[5]; [11],2 µg/mL
same,MIC,[5]; [12],2 µg/mL
same,MIC,[6]; read-out: MIC (mcg/ml),16 µg/mL
same,MIC,[6]; [11],8 µg/mL
same,MIC,[6]; [12],4 µg/mL
same,MIC,[7]; read-out: MIC (mcg/ml),8 µg/mL
same,MIC,[7]; [11],0.5 µg/mL
same,MIC,[7]; [12],0.5 µg/mL
same,MIC,"[8]; NCTC13304, read-out: MIC (mcg/ml)",16 µg/mL
same,MIC,"[8]; NCTC13304, read-out: MIC (mcg/ml) in presence of Compound of Formula (I) at 4 mcg/ml",2 µg/mL
same,MIC,"[8]; NCTC13304, read-out: MIC (mcg/ml) in presence of Compound of Formula (I) at 8 mcg/ml",2 µg/mL
same,MIC,[9]; read-out: MIC (mcg/ml),16 µg/mL
same,MIC,[9]; [11],2 µg/mL
same,MIC,[9]; [12],2 µg/mL
